The term Kd denotes the constant that tells how readily two partners part at equilibrium. Lower therefore signals a tighter complex.

Structures are written as SMILES. Some results are limits rather than exact numbers.

Experimental findings from patent US10487078B2, “Compositions and methods of targeting mutant K-RAS” (NantBio, Inc., priority 2015, dated 2019) are described below.

In the first test the target is K-ras G12D (Homo sapiens, UniProt P01116, G12D). Nature of the test: G-LISA Ras activation assay, 293H cells transfected with G12D mutant. The test is classed as cell-based. The conditions noted are these: Table 1; G-LISA, 293H transfected, 1 hour treatment; read-out: IC50 (μM) G12D. Here is the method: (§1) 293H cells were seeded in 6-wells at 0.6×10^6 cells per well and transfected next day with 5 μg of Ras wild-type, or G12C, G12D or G12V mutant DNA plasmid vector using transfection reagent Lipofectamine 3000. Next day cells were treated with 3.125-50 μM of Ras compounds for 1 hour. Wild-type transfected cells were subsequently treated with 100 ng/ml EGF for 2 minutes. Cells were washed once in ice-cold PBS, lysed in complete lysis buffer on ice, and processed by G-LISA according to Cytoskeleton protocol.
In-cell selectivity of the compounds presented herein against a specific K-ras mutant form can also be tested as shown in the following exemplary experiment. 293H cells were seeded in 6-wells and transfected next day with 5 μg of Ras wild-type, or G12C, G12D or G12V mutant DNA plasmid vector. Next day cells were treated with 3.125-50 μM of Ras compounds for 1 hour. Wild-type transfected cells were subsequently treated with 100 ng/ml EGF for 2 minutes. Cells were washed once in ice-cold PBS, lysed in complete lysis buffer on ice, and processed by G-LISA according to Cytoskeleton protocol. FIG. 1 depicts exemplary results.
as §1, with “In still further experiments, the inventors tested selected compounds in a G-LISA assay to compare IC50 values for wild-type and various mutant K-Ras (G12D, G12V) using the following general protocol: 293H” for “293H”
As for `CCc1ncsc1C(=O)Nc1nc(-c2ccc3c(c2)CCC(=O)N3)cs1` [Compound 4747], the IC50 was more than 25 µM.
Same read-out and setting: under `Cc1nc(C)c(C(=O)Nc2nc(-c3ccc4c(c3)CNC(=O)N4)cs2)s1` [Compound 4748] stands 21 µM; under `Cc1nc(C)c(C(=O)Nc2nc(-c3cc4c5c(c3)CCN5C(=O)CC4)cs2)s1` [Compound 4749], more than 25 µM.
Same read-out and setting: under `CCc1sc(NC(=O)c2sc(C)nc2C)nc1-c1ccc2c(c1)CCC(=O)N2` [Compound 4803] stands more than 25 µM.
Same read-out and setting: under `O=C1CCc2cc(-c3csc(NCc4ccccc4)n3)ccc2N1` [Compound 4824] stands more than 25 µM; under `O=C1CCc2cc(-c3csc(NC(=O)c4ccccc4)n3)ccc2N1` [Compound 4825], more than 25 µM; under `O=C1CCc2cc(-c3csc(NC(=O)c4ncccn4)n3)ccc2N1` [Compound 4826], more than 25 µM.
Turning to `Cc1nc(C(=O)Nc2nc(-c3ccc4c(c3)CCC(=O)N4)cs2)sc1C` [Compound 4828], the IC50 was more than 25 µM.
On to `O=C1CCc2cc(-c3csc(Nc4ncccn4)n3)ccc2N1` [Compound 4829], for which the IC50 was more than 25 µM.
Still for that read-out and setting: in the case of `Cc1ccccc1C(=O)Nc1nc(-c2ccc3c(c2)CCC(=O)N3)cs1` [Compound 4874] it was 16 µM.

Still in this test, the particulars now being: Table 5; IC50, 293H transfected, 1 hour treatment; read-out: G-LISA (G12D).
For `CCc1ncsc1C(=O)Nc1nc(-c2ccc3c(c2)CCC(=O)N3)cs1` [Compound 4747], the IC50 is more than 25 µM.
On the same count and under the same terms, under `Cc1nc(C)c(C(=O)Nc2nc(-c3ccc4c(c3)CNC(=O)N4)cs2)s1` [Compound 4748] stands 21 µM; under `Cc1nc(C)c(C(=O)Nc2nc(-c3cc4c5c(c3)CCN5C(=O)CC4)cs2)s1` [Compound 4749], 36 µM; under `CCc1sc(NC(=O)c2sc(C)nc2C)nc1-c1ccc2c(c1)CCC(=O)N2` [Compound 4803], 71 µM.
For the compound `O=C1CCc2cc(-c3csc(NCc4ccccc4)n3)ccc2N1` [Compound 4824], the IC50 was more than 25 µM.
The same measure, in the same setting: in the case of `O=C1CCc2cc(-c3csc(NC(=O)c4ccccc4)n3)ccc2N1` [Compound 4825] it was more than 25 µM; in that of `O=C1CCc2cc(-c3csc(NC(=O)c4ncccn4)n3)ccc2N1` [Compound 4826], more than 25 µM.
The same measure, in the same setting: under `Cc1nc(C(=O)Nc2nc(-c3ccc4c(c3)CCC(=O)N4)cs2)sc1C` [Compound 4828] stands more than 25 µM; under `O=C1CCc2cc(-c3csc(Nc4ncccn4)n3)ccc2N1` [Compound 4829], more than 25 µM; under `Cc1ccccc1C(=O)Nc1nc(-c2ccc3c(c2)CCC(=O)N3)cs1` [Compound 4874], 16 µM.

A further test concerns Akt phosphorylation in Panc1 (G12D) cells. Nature of the test: In-Cell Western Akt phosphorylation. It counts as cell-based. As to conditions: EC50, one hour treatment; read-out: In-Cell Western Akt phosporylation Panc1 (G12D). As for the experimental part: (§2) In-cell phosphorylation assays for Erk and Akt were performed on various of the compounds and exemplary results are shown in Table 3 below using […] and Panc10.05 cell lines for G12D K-ras mutants.
(§3) Cells are seeded in complete medium into black sided, clear-bottom 384-well microplates at 3000 cells/[…]/well. Plates are returned to 37° C. CO2 incubator for 18 hr. Drug is made as 200× in DMSO and diluted into medium to 10×. To each well is added 4 ul 10× test article or controls, and plates are returned to the incubator. Final assay DMSO concentration is 0.5%. After one hour, cells are fixed in formaldehyde, rinsed & permeabilized with triton X-100, and blocked with BSA/Goat serum blocking solution. Primary phospho-Akt and phospho-ERK antibodies are added and plates are incubated overnight at 4° C. Plates are rinsed with Tween-20 wash buffer and secondary antibody (Goat anti-rabbit, Thermofisher) is added. After 2 hours, plates are rinsed in Tween-20 wash buffer, and then PBS. Plates are imaged on the Celigo (Nexcelom) and cellular fluorescence is quantitated. Full inhibition of phospho-Akt is achieved with 1 uM BEZ235 (Sellekchem), while full inhibition of phospho-ERK is achieved with 1 uM MEK Inhibitor II Calbiochem). EC50 values are calculated using Graphpad Prism.
With `Cc1ccccc1C(=O)Nc1nc(-c2ccc3c(c2)CCC(=O)N3)cs1` [Compound 4874], the EC50 stood at 25 µM.
Same read-out and setting: under `COCc1nc(C)c(C(=O)Nc2nc(-c3ccc4c(c3)CCC(=O)N4)cs2)s1` [Compound 4876] stands 20 µM.

The subject of a further test is Akt phosphorylation in Panc10.05 (G12D) cells. Nature of the test: In-Cell Western Akt phosphorylation. The test is classed as cell-based. As to conditions: EC50, one hour treatment; read-out: In-Cell Western Akt phosporylation Panc10.05 (G12D). Here is the method: as §2, §3
In the case of `Cc1ccccc1C(=O)Nc1nc(-c2ccc3c(c2)CCC(=O)N3)cs1` [Compound 4874], the EC50 was more than 25 µM.
Take `COCc1nc(C)c(C(=O)Nc2nc(-c3ccc4c(c3)CCC(=O)N4)cs2)s1` [Compound 4876]: the EC50 is more than 25 µM.

The next test has as its target K-ras G12V (GTP) (Homo sapiens, UniProt P01116, G12V). In words: SPR assay (surface plasmon resonance). It counts as binding. As to conditions: 25° C., 8% DMSO. Here is the method: Selected compounds were also tested for selective binding to wild type and mutant forms of K-ras in the active and non-active state using surface plasmon resonance, and exemplary results are shown in Table 4.
The running buffer in all surface plasmon resonance experiments was 10 mM HEPES pH 7.4, 150 mM NaCl, 0.1% (v/v) Tween-20, 1 mM MgCl2, 8% DMSO. Experiments were carried out on the SensiQ Pioneer optical biosensor. The flow rate was set at 50 μL/min and the temperature was 25° C. kRAS protein was immobilized to the Nickel-NTA charged surface of the SensiQ HisCap chip (sensiqtech.com) giving a yield of 4000 RU. Small molecules were prepared in 100% DMSO and further diluted to 8% DMSO in running buffer. The small molecules were injected using the Taylor diffusion gradient injection mode (OneStep®, see e.g., Evaluation of Taylor dispersion injections: Determining kinetic/affinity interaction constants and diffusion coefficients in label-free biosensing, John G. Quinn, Analytical Biochemistry (2011)). Buffer blanks were injected for double referencing purposes. Data processing and model fitting were performed using Qdat.
Regarding `CCc1ncsc1C(=O)Nc1nc(-c2ccc3c(c2)CCC(=O)N3)cs1` [Compound 4747], the Kd worked out at 10.1 µM and the “SPR Assay G12V (GTP) Rmax” value is reported as “Rmax = 85.3 ± 0.1”.
Turning to `Cc1nc(C)c(C(=O)Nc2nc(-c3cc4c5c(c3)CCN5C(=O)CC4)cs2)s1` [Compound 4749], the Kd was 6.08 µM and the “SPR Assay G12V (GTP) Rmax” value is “Rmax = 75.9 ± 0.1”.

The next test relates to Ishikawa (K-Ras wild-type) cells. Nature of the test: 72 hr cell viability (CellTiterBlue). As to conditions: GI50, 72 hr. It counts as cell-based. Here is the method:
(§4) Viability assays were performed on exemplary compounds and Table 2 below lists exemplary results for selected compounds tested on wild type (Ishikawa) and various K-ras mutants (Panc1-G12D; Panc10.05-G12D; HCT116-G13D).
(§5) Cells are counted and seeded at 1000 cells/36 ul medium/well into 384-well microplates. Cells are returned to 37° C. CO2 incubator for 18 hr. Drug is made as 200× in DMSO and diluted into medium to 10×. To each well is added 4 ul 10× drug, and plates are returned to the incubator. Final assay DMSO concentration is 0.5%. After 72 hr, 8 ul CellTiterBlue (Promega) is added to each well. After 3 hr, fluorescence (Ex550/Em590) is determined on the Victor Plate Reader (Perkin Elmer). Assay range is determined by DMSO control (100% viability) and 100 uM tamoxifen (0% viability). GI50 values are calculated using Graphpad Prism.
On the technique in general: The colour change of resazurin is a common sign of viable cells or microbes.
On to `Cc1ccccc1C(=O)Nc1nc(-c2ccc3c(c2)CCC(=O)N3)cs1` [Compound 4874], for which the IC50 stood at 3 µM.
On the same count and under the same terms, in the case of `COCc1nc(C)c(C(=O)Nc2nc(-c3ccc4c(c3)CCC(=O)N4)cs2)s1` [Compound 4876] it was 3 µM.

Another test has as its system Panc1 (G12D) cells. Nature of the test: 72 hr cell viability (CellTiterBlue). As to conditions: GI50, 72 hr. The test is classed as cell-based. As for the experimental part: as §4, §5
As to `Cc1ccccc1C(=O)Nc1nc(-c2ccc3c(c2)CCC(=O)N3)cs1` [Compound 4874], the IC50 was determined as 12 µM.
The same measure, in the same setting: in the case of `COCc1nc(C)c(C(=O)Nc2nc(-c3ccc4c(c3)CCC(=O)N4)cs2)s1` [Compound 4876] it was 13 µM.

Another test concerns Erk phosphorylation in Panc1 (G12D) cells. In words: In-Cell Western Erk phosphorylation. The test is classed as cell-based. As to conditions: EC50, one hour treatment; read-out: In-Cell Western Erk phosporylation Panc1 (G12D). Here is the method: as §2, §3
`Cc1ccccc1C(=O)Nc1nc(-c2ccc3c(c2)CCC(=O)N3)cs1` [Compound 4874]: the EC50 was more than 25 µM.
Still for that read-out and setting: in the case of `COCc1nc(C)c(C(=O)Nc2nc(-c3ccc4c(c3)CCC(=O)N4)cs2)s1` [Compound 4876] it was 9 µM.

For the next test, the system named is Erk phosphorylation in Panc10.05 (G12D) cells. In words: In-Cell Western Erk phosphorylation. It counts as cell-based. As to conditions: EC50, one hour treatment; read-out: In-Cell Western Erk phosporylation Panc10.05 (G12D). As for the experimental part:
as §2, §3
Regarding `Cc1ccccc1C(=O)Nc1nc(-c2ccc3c(c2)CCC(=O)N3)cs1` [Compound 4874], the EC50 stood at 14 µM.
On the same count and under the same terms, in the case of `COCc1nc(C)c(C(=O)Nc2nc(-c3ccc4c(c3)CCC(=O)N4)cs2)s1` [Compound 4876] it was 17 µM.
